Test results published in patent US20230339970A1, “CASEIN KINASE 1 DELTA MODULATORS” (priority 2020, published 2023).
pIC50: −log10 of the molar value.

Assays:
human CSNK1D = molecular target: T1, human CSNK1D (Homo sapiens, UniProt P48730); assay: Whole Cell nBRET CSNK1D Binding Assay; conditions: living CHO cells stably expressing human CSNK1D tagged with nanoluciferase; NanoBret tracer 130 nM; 2 hours at 37 C
T1 construct: expressed in transfected cells

[1] = molecular target: T2, human recombinant GST cleaved CSNK1D (Homo sapiens, UniProt P48730); assay: Purified Enzyme Assay (ADP-Glo CSNK1D Kinase Assay); assay type: biochemical; conditions: 2 nM CSNK1D; peptide substrate 150 μM; ATP 20 μM; 45 minutes at room temperature
T2 construct: GST (cleaved yes); purchased University of Dundee clone DU 19064
In short: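 Percent activity derived from ADP-Glo quantification of ADP produced. Reactions: compound dose-response with human recombinant GST-cleaved CSNK1D, ATP and substrate peptide PLSRTL-pS-VASLPGL, incubated 45 min at room temperature.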

T2 sequence (P48730 whole entry): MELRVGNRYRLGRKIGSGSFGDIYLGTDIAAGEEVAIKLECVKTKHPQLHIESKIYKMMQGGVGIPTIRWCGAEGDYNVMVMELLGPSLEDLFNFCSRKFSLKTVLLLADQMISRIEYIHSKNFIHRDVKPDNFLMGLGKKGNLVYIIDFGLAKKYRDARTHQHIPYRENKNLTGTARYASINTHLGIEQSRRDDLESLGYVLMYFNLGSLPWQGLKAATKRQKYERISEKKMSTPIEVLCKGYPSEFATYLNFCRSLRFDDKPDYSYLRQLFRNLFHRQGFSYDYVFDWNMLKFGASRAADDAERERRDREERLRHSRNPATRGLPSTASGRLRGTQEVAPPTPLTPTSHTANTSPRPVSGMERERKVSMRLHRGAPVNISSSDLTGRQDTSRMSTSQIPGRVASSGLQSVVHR
T1 sequence (P48730 whole entry): as above

Row | Structure (SMILES) | pIC50 (human CSNK1D) | pIC50 [1]
1 | CCn1ncc2cc(-c3c(-c4ccc(F)cn4)nn4c3OCC(C)(C)C4)cnc21 [Example 452, 3-(1-Ethyl-1H-pyrazolo[3,4-b]pyridin-5-yl)-2-(5-fluoropyridin-2-yl)-6,6-dimethyl-6,7-dihydro-5H-pyrazolo[5,1-b][1,3]oxazine] | 6.24 | 7.36
2 | Fc1ccc(-c2nn3c(c2-c2ccnc4[nH]ncc24)COC(C(F)(F)F)C3)nc1 (stereo not shown) [Example 102, 2-(5-Fluoropyridin-2-yl)-3-(1H-pyrazolo[3,4-b]pyridin-4-yl)-6-(trifluoromethyl)-6,7-dihydro-4H-pyrazolo[5,1-c][1,4]oxazine] | 6.07 | 7.41
3 | CC1(C)Cn2nc(-c3ccc(F)cn3)c(-c3c(F)cnc4[nH]nc(Cl)c34)c2CO1 [Example 392, 3-(3-Chloro-5-fluoro-1H-pyrazolo[3,4-b]pyridin-4-yl)-2-(5-fluoropyridin-2-yl)-6,6-dimethyl-6,7-dihydro-4H-pyrazolo[5,1-c][1,4]oxazine] | 7.59 | 8.15
4 | COCC1CCc2c(-c3cc(C)nc4[nH]ncc34)c(-c3ccc(F)cn3)nn2C1 (single isomer, unassigned) [Example 296, (*S)-4-[2-(5-Fluoro-2-pyridyl)-6-(methoxymethyl)-4,5,6,7-tetrahydropyrazolo[1,5-a]pyridin-3-yl]-6-methyl-1H-pyrazolo[3,4-b]pyridine] | 6.62 | 7.77
5 | Cc1cn2nccc2cc1-c1c(-c2ccc(F)cn2)nn2c1OCC(C)(C)C2 [Example 451, 2-(5-Fluoro-2-pyridyl)-6,6-dimethyl-3-(6-methylpyrazolo[1,5-a]pyridin-5-yl)-5,7-dihydropyrazolo[5,1-b][1,3]oxazine] | 5.24 | 6.88
6 | CC(=O)Nc1cc(-c2c(-c3ccc(F)cc3)nn3c2CCC2C3C2(F)F)ccn1 (racemic) [Example 348, N-(4-(6,6-Difluoro-2-(4-fluorophenyl)-5,5a,6,6a-tetrahydro-4H-cyclopropa[e]pyrazolo[1,5-a]pyridin-3-yl)pyridin-2-yl)acetamide] | 8.52 | 9.00
7 | Fc1ccc(-c2nn3c(c2-c2ccnc4[nH]ncc24)CO[C@@H](C2CC2)C3)nc1 (single isomer, unassigned) [Example 109, (*S)-6-Cyclopropyl-2-(5-fluoropyridin-2-yl)-3-(1H-pyrazolo[3,4-b]pyridin-4-yl)-6,7-dihydro-4H-pyrazolo[5,1-c][1,4]oxazine] | 6.52 | 7.82
8 | Fc1ccc(-c2nn3c(c2-c2ccnc4[nH]ncc24)OCCC3)cc1 [Example 184, 2-(4-Fluorophenyl)-3-(1H-pyrazolo[3,4-b]pyridin-4-yl)-6,7-dihydro-5H-pyrazolo[5,1-b][1,3]oxazine] | 7.82 | 8.70
9 | Fc1ccc(-c2nn3c(c2-c2ccnc4[nH]ncc24)CCC(F)(COC(F)(F)F)C3)nc1 (single isomer, unassigned) [Example 316, (*S)-4-[6-Fluoro-2-(5-fluoro-2-pyridyl)-6-(rifluoromethoxymethyl)-5,7-dihydro-4H-pyrazolo[1,5-a]pyridin-3-yl]-1H-pyrazolo[3,4-b]pyridine] | 7.27 | 8.22
10 | [2H]C([2H])([2H])[C@@]1(C(F)(F)F)Cn2nc(-c3ccc(F)cn3)c(-c3cc(C)nc4[nH]nc(C)c34)c2CO1 (single isomer, unassigned) [Example 429, (*S)-3-(3,6-Dimethyl-1H-pyrazolo[3,4-b]pyridin-4-yl)-2-(5-fluoropyridin-2-yl)-6-(methyl-d3)-6-(trifluoromethyl)-6,7-dihydro-4H-pyrazolo[5,1-c][1,4]oxazine] | 5.65 | 6.88
11 | CC1(C)CCn2nc(-c3ccc(F)cc3)c(-c3ccnc4[nH]ncc34)c21 [Example 245, 4-[2-(4-Fluorophenyl)-4,4-dimethyl-5,6-dihydropyrrolo[1,2-b]pyrazol-3-yl]-1H-pyrazolo[3,4-b]pyridine] | 7.37 | 8.30
12 | COCC1(F)CCc2c(-c3cc(C)nc4[nH]ccc34)c(-c3ccc(F)cn3)nn2C1 (single isomer, unassigned) [Example 298, (*S)-4-[6-Fluoro-2-(5-fluoro-2-pyridyl)-6-(methoxymethyl)-5,7-dihydro-4H-pyrazolo[1,5-a]pyridin-3-yl]-6-methyl-1H-pyrrolo[2,3-b]pyridine] | 7.92 | 8.70
13 | Cc1cc(-c2c(-c3ccc(F)cc3)nn3c2C2CCC3CC2)c2cn[nH]c2n1 [Example 66, 2-(4-Fluorophenyl)-3-(6-methyl-1H-pyrazolo[3,4-b]pyridin-4-yl)-4,5,6,7-tetrahydro-4,7-ethanopyrazolo[1,5-a]pyridine] | 8.40 | 8.70
14 | Cc1cc(-c2c(-c3cncc(F)c3)nn3c2COCC3)c2cn[nH]c2n1 [Example 77, 2-(5-Fluoro-3-pyridyl)-3-(6-methyl-1H-pyrazolo[3,4-b]pyridin-4-yl)-6,7-dihydro-4H-pyrazolo[5,1-c][1,4]oxazine] | 5.63 | 6.94
15 | Fc1ccc(-c2nn3c(c2-c2ccnc4[nH]ncc24)OCCC3)nc1 [Example 186, 2-(5-Fluoropyridin-2-yl)-3-(1H-pyrazolo[3,4-b]pyridin-4-yl)-6,7-dihydro-5H-pyrazolo[5,1-b][1,3]oxazine] | 6.59 | 8.05
16 | Cc1nc2[nH]nc(C)c2c(-c2c(-c3ccc(F)cn3)nn3c2CC2(C3)CC2(F)F)c1F (single isomer, unassigned) [Example 266, (*S)-1′1l′-Difluoro-3-(5-fluoro-3,6-dimethyl-1H-pyrazolo[3,4-b]pyridin-4-yl)-2-(5-fluoro-2-pyridyl)spiro[4,6-dihydropyrrolo[1,2-b]pyrazole-5,2′-cyclopropane]] | 6.47 | 7.28
17 | Cc1cc(-c2c(-c3ccc(F)cc3)nn3c2OC[C@@H](C)C3)c2cn[nH]c2n1 (single isomer, unassigned) [Example 193, (*S)-2-(4-Fluorophenyl)-6-methyl-3-(6-methyl-1H-pyrazolo[3,4-b]pyridin-4-yl)-6,7-dihydro-5H-pyrazolo[5,1-b][1,3]oxazine] | 8.30 | > 9.30
18 | Fc1ccc(-c2nn3c(c2-c2ccnc4[nH]ncc24)CCC(F)(COC(F)(F)F)C3)nc1 (single isomer, unassigned) [Example 317, (*R)-4-[6-Fluoro-2-(5-fluoro-2-pyridyl)-6-(trifluoromethoxymethyl)-5,7-dihydro-4H-pyrazolo[1,5-a]pyridin-3-yl]-1H-pyrazolo[3,4-b]pyridine] | 5.07 | 6.95
19 | Fc1ccc(-c2nn3c(c2-c2ccnc4[nH]ccc24)COCC3)cc1 [Example 69, 2-(4-Fluorophenyl)-3-(1H-pyrrolo[2,3-b]pyridin-4-yl)-6,7-dihydro-4H-pyrazolo[5,1-c][1,4]oxazine] | 7.37 | 8.15
20 | Fc1ccc(-c2nn3c(c2-c2ccnc4[nH]ccc24)CCCC3)nc1 [Example 3, 4-[2-(5-Fluoro-2-pyridyl)-4,5,6,7-tetrahydropyrazolo[1,5-a]pyridin-3-yl]-1H-pyrrolo[2,3-b]pyridine] | 7.39 | 8.10
21 | Fc1ccc(-c2nn3c(c2-c2ccnc4[nH]ncc24)[C@@H](Cl)C[C@]2(C3)CC2(F)F)nc1 (single isomer, unassigned) [Example 337, (1*S,4′*S)-4′-Chloro-2,2-difluoro-2′-(5-fluoropyridin-2-yl)-3′-(1H-pyrazolo[3,4-b]pyridin-4-yl)-4′,5′-dihydro-7′H-spiro[cyclopropane-1,6′-pyrazolo[1,5-a]pyridine]] | 7.10 | 8.52
22 | COCC[C@@]1(C)CCc2c(-c3ccnc4[nH]ncc34)c(-c3ccc(F)cn3)nn2C1 (single isomer, unassigned) [Example 319, (*R)-4-[2-(5-Fluoro-2-pyridyl)-6-(2-methoxyethyl)-6-methyl-5,7-dihydro-4H-pyrazolo[1,5-a]pyridin-3-yl]-1H-pyrazolo[3,4-b]pyridine] | 7.09 | 8.30
23 | Cc1nc(-c2c(-c3ccc(F)cn3)nn3c2CC[C@@H]2C[C@@H]23)c2cn[nH]c2n1 (relative stereo) [Example 347, (5a*R,6a*S)-2-(5-fluoropyridin-2-yl)-3-(6-methyl-1H-pyrazolo[3,4-d]pyrimidin-4-yl)-5,5a,6,6a-tetrahydro-4H-cyclopropa[e]pyrazolo[1,5-a]pyridine] | 6.24 | 7.46
24 | Fc1ccc(-c2nn3c(c2-c2ccnc4[nH]ncc24)CCC2(C3)CC2(F)F)nc1 (single isomer, unassigned) [Example 328, (*R)-2,2-Difluoro-2′-(5-fluoropyridin-2-yl)-3′-(1H-pyrazolo[3,4-b]pyridin-4-yl)-4′,5′-dihydro-7′H-spiro[cyclopropane-1,6′-pyrazolo[1,5-a]pyridine]] | 8.10 | 9.00
25 | Cc1cc(-c2c(-c3ccc(F)cc3)nn3c2OCC(C)(C)C3)c2cn[nH]c2n1 [Example 213, 2-(4-Fluorophenyl)-6,6-dimethyl-3-(6-methyl-1H-pyrazolo[3,4-b]pyridin-4-yl)-6,7-dihydro-5H-pyrazolo[5,1-b][1,3]oxazine] | 8.70 | 9.00
26 | C[C@@]1(CF)CCc2c(-c3ccncc3)c(-c3ccc(F)cn3)nn2C1 (single isomer, unassigned) [Example 285, (*R)-6-(Fluoromethyl)-2-(5-fluoro-2-pyridyl)-6-methyl-3-(4-pyridyl)-5,7-dihydro-4H-pyrazolo[1,5-a]pyridine] | 7.00 | 7.96
